Reference: patent US20260224486A1, “DIANHYDROHEXITOL BASED IONIZABLE LIPIDS FOR NUCLEIC ACID DELIVERY” (SANOFI PASTEUR INC., priority 2023, published 2026)

Legend:
[1] = mRNA encapsulation efficiency of lipid nanoparticles (RiboGreen assay); assay type: physicochemical; conditions: hEPO mRNA LNP, Process A, Cationic Lipid:DMG-PEG2000:Cholesterol:DOPE 40:1.5:28.5:30 mol %, N/P 4
From the text: In embodiments, the lipid nanoparticle encapsulates a nucleic acid, optionally an mRNA encoding a peptide or protein. In embodiments, the lipid nanoparticle encapsulates an mRNA encoding a peptide or protein, optionally for use in a vaccine. In embodiments, the peptide is an antigen. As used herein, the phrase “encapsulation percentage” refers to the fraction of therapeutic agent (e.g. mRNA) that is effectively encapsulated within a liposomal-based vehicle (e.g. a lipid nanoparticle) relative to the initial fraction of therapeutic agent present in the lipid phase. In embodiments, the lipid nanoparticles have an encapsulation percentage for mRNA of at least 50%. In embodiments, the lipid nanoparticles have an encapsulation percentage for mRNA of at least 55%. In embodiments, the lipid nanoparticles have an encapsulation percentage for mRNA of at least 60%. In embodiments, the lipid nanoparticles have an encapsulation percentage for mRNA of at least 65%. In embodiments, the lipid nanoparticles have an encapsulation percentage for mRNA of at least 70%. In embodiments, the lipid nanoparticles have an encapsulation percentage for mRNA of at least 75%. In embodiments, the lipid nanoparticles have an encapsulation percentage for mRNA of at least 80%. In embodiments, the lipid nanoparticles have an encapsulation percentage for mRNA of at least 85%. In embodiments, the lipid nanoparticles have an encapsulation percentage for mRNA of at least 90%. In embodiments, the lipid nanoparticles have an encapsulation percentage for mRNA of at least 95%. In embodiments, the encapsulation percentage is calculated by performing the Ribogreen assay (Invitrogen) with and without the presence of 0.1% Triton-X 100.
(§1) Lipid nanoparticle formulations of Table 1 were prepared by Process A. All of the lipid nanoparticle formulations comprised hEPO mRNA and the different lipids (Cationic Lipid: DMG-PEG2000: Cholesterol: DOPE) in mol % ratios of 40:1.5:28.5:30 (Cationic Lipid: DMG-PEG2000: Cholesterol: DOPE).
The RiboGreen Assay is a fluorescence-based method for the determination of mRNA concentration (Total and Free) and % encapsulation using Quant-iT™ RiboGreen® RNA reagent in mRNA containing lipid nanoparticles.
• To each of the standards (Blank, mRNA-1, mRNA-2. mRNA-3, mRNA-4, mRNA-5) and Samples (free mRNA and total mRNA), add 1.0 mL of 200-fold Ribogreen Reagent Solution and gently mix by inversion. This is a 2× Dilution. • Add 200 μL of each standard and sample in triplicate using the reverse pipetting technique in a 96-well Costar Black with Clear Background Plate. Ensure no bubbles are present in the plate before the fluorescence reading. • Read the fluorescence signal using the below instrument parameters: • Read Type: Fluorescence, Bottom Read • Excitation: 485 nm; Cut-off: 515 nm; Emission: 530 nm • Plate Type: 96-well Costar Black with Clear Background
The average fluorescence from each calibration standard is plotted against the concentration to generate a linear calibration curve using the MS Excel software. The coefficient of determination (R^2) of calibration curve must be R^2>0.99.
[formula] • Where, • Y=average fluorescence value • m: slope • x: concentration (pg/mL) • c: y-intercept • Using the linear equation, calculate the concentration of free and total mRNA concentration in the test sample by replacing the y value in the equation with the average fluorescence value of each respective sample • Once the concentration is determined, the actual concentration in the sample can be back-calculated by multiplying the concentration in the test sample with the dilution factor (DF) as follows:
[formula] [formula] • Concentration of encapsulated mRNA can be determined by subtracting the concentration of free mRNA from the total mRNA. • % Encapsulation can then be calculated by taking the ratio of encapsulated mRNA over total mRNA and multiplying the result with 100.

BALB/cJ mice = assay: Delivery of hEPO mRNA by intramuscular administration of LNPs; serum hEPO by ELISA; assay type: in vivo, Mouse; conditions: for hEPO 6 Hr (ng/mL) Mean / hEPO 24 Hr (ng/ml) Mean: Table 3, isomannide-derived lipids; for hEPO 24 Hr (ng/ml) Mean: mouse serum 24 hours post single IM injection of 0.1 μg hEPO mRNA LNP
Experimental: In summary, lipid screening studies were conducted with female BALB/cJ mice 6-8 weeks of age. Mice were dosed with 0.1 μg in 30 μL of LNPs by a single intramuscular (IM) injection into the gastrocnemius leg muscle. Blood samples were taken 6 and 24 hours post injection and hEPO levels were measured in the blood serum of the mice using an ELISA assay according to the manufacture's protocol.
Treatment Regimen: On Day 1, animals from Groups 1-33 were dosed via intramuscular injection while under light isoflurane anesthesia according to the study design table above. Animals in Groups 1-33 were injected with EPO mRNA LNPs in the right leg only. Groups 1 and 17 animals received MC3 control.
Interim Sample Collections: Interim whole blood (^~50 μL) was collected by tail snip or saphenous vein at 6 and 24 hours post dose administration (±5%). Blood samples were collected into serum separator tubes, allowed to clot at room temperature for at least 10 minutes, centrifuged at ambient temperature at minimum 1000 g for 10 minutes and the serum was extracted. All serum samples were stored at nominally −70° C. until analysis hEPO by the Testing Facility. The results of the EPO analysis were included in the Data Submission.
Terminal Blood Collections: Whole blood was collected via cardiac puncture into serum separator tube, allowed to clot at room temperature for at least 10 minutes, centrifuged at ambient temperature at minimum 1000 g for 10 minutes and the serum was extracted. Serum samples were stored at nominally −70° C. until analyzed for hEPO by the Test Facility.
ELISA Assay: Human erythropoietin (hEPO) levels in sera samples were determined by ELISA kit (R&D systems, Cat #DEP-00) according to the manufactory instruction and the results were included in the Data Submission. The “shaker” protocol was used. The serum samples were diluted between 1:40 and 1:100.

[2] = Lipid nanoparticle size and polydispersity index by dynamic light scattering (Malvern Zetasizer); assay type: physicochemical; conditions: hEPO mRNA LNP, Process A, Cationic Lipid:DMG-PEG2000:Cholesterol:DOPE 40:1.5:28.5:30 mol %, N/P 4
From the text: The lipid nanoparticles in the examples of the present invention were formulated using Process A of WO 2018/089801 (see, e.g., Example 1 and FIG. 1 of WO 2018/089801). Process A (“A”) relates to a conventional method of encapsulating mRNA by mixing mRNA with a mixture of lipids, without first pre-forming the lipids into lipid nanoparticles. In an exemplary process, an ethanolic solution of a mixture of lipids (cationic lipid, phosphatidylethanolamine, cholesterol, and polyethylene glycol-lipid) at a fixed lipid to mRNA ratio were combined with an aqueous buffered solution of target mRNA at an acidic pH under controlled conditions to yield a suspension of uniform LNPs. After ultrafiltration and diafiltration into a suitable diluent system, the resulting nanoparticle suspensions were diluted to final concentration, filtered, and stored frozen at −80° C. until use.
as §1
The Polydispersity Index (Pdl) of lipid nanoparticles can be determined by diluting the formulation in 10% trehalose at about 0.1 mg/ml mRNA concentration and then measuring the size on Malvern zetasizer. The lipid nanoparticle size can be obtained with Malvern Zetasizer Nano-ZS.
Dynamic light scattering (DLS) measurements were performed using a Malvern Instruments Zetasizer with a backscattering detector angle of 173° and a 4-mW, 633-nm He—Ne laser (Worcestershire, UK). The samples were analyzed by diluting in 10% Trehalose and measuring the size and Poly dispersity Index (PDI) in an optical grade polystyrene cuvette.

[3] = mouse serum 6 hours post single IM injection of 0.1 μg hEPO mRNA LNP
[4] = Table 4, further lipids, mouse serum 6 hours post IM injection of hEPO mRNA LNP as in example 3

| SMILES | Encapsulation efficiency (EE) % [1] [%] | hEPO 6 Hr (ng/mL) Mean (BALB/cJ mice; [3]) [ng/mL] | hEPO 24 Hr (ng/ml) Mean (BALB/cJ mice) [ng/mL] | Polydispersity Index (PDI) [2] | Size (nm) [2] [nm] | hEPO 6 Hr (ng/ml) Mean (BALB/cJ mice; Table 2, isosorbide-derived lipids, mouse serum 6 hours post single IM injection of 0.1 μg hEPO mRNA LNP) [ng/mL] | hEPO 6 Hr (ng/ml) Mean (BALB/cJ mice; [4]) [ng/mL] |
| --- | --- | --- | --- | --- | --- | --- | --- |
| CCCCCCCCCCCOC(=O)CCCC(O)CN(CCCC(=O)O[C@@H]1CO[C@H]2[C@@H]1OC[C@H]2OC(=O)CCCN(CC(O)CCCCCCCCCC)CC(O)CCCCCCCCCC)CC(O)CCCCCC(=O)OC(CCCCCCCC)CCCCCCCC (some centres unmarked) [Compound 9] | 91 | 30.7 | 19.8 | 0.1 | 114 | – | – |
| CCCCCCCCCCC(O)CN(CCCCC(=O)O[C@@H]1CO[C@H]2[C@@H]1OC[C@H]2OC(=O)CCCCN(CC(O)CCCCCCCCCC)CC(O)CCCCCCCCCC)CC(O)CCCCCCCCCC (some centres unmarked) [Compound 4] | 94 | 43.2 | – | 0.16 | 78 | – | – |
| CCCCCCCCCCCCC(O)CN(CCCOC(=O)O[C@@H]1CO[C@H]2[C@@H]1OC[C@H]2OC(=O)OCCCN(CC(O)CCCCCCCCCCCC)CC(O)CCCCCCCCCCCC)CC(O)CCCCCCCCCCCC (some centres unmarked) [Compound 37] | 95 | 27.4 | – | 0.25 | 65 | – | – |
| CCCCCCCCCCC(O)CN(CCCC(=O)O[C@@H]1CO[C@H]2[C@@H]1OC[C@H]2OC(=O)CCCN(CC(O)CCCCCC(=O)OC(CCCCCCCC)CCCCCCCC)CC1CCCC(=O)O1)CC(O)CCCCCCCCCC (some centres unmarked) [Compound 19] | 74 | 10.7 | 5.35 | 0.13 | 94 | – | – |
| CCCCCCCCCCC(O)CN(CCCCC(=O)O[C@@H]1CO[C@H]2[C@@H]1OC[C@@H]2OC(=O)CCCN(CC(O)CCCCCCCCCC)CC(O)CCCCCCCCCC)CC(O)CCCCCCCCCC (some centres unmarked) [Compound 25] | 96 | – | – | 0.13 | 81 | 42.7 | – |
| CCCCCCCCCCCCC(O)CN(CCCCC(=O)O[C@@H]1CO[C@H]2[C@@H]1OC[C@H]2OC(=O)CCCCN(CC(O)CCCCCCCCCCCC)CC(O)CCCCCCCCCCCC)CC(O)CCCCCCCCCCCC (some centres unmarked) [Compound 5] | 75 | 26.3 | – | 0.11 | 107 | – | – |
| CCCCCCCCCCC(O)CN(CCCC(=O)N[C@H]1CO[C@H]2[C@@H]1OC[C@@H]2NC(=O)CCCN(CC(O)CCCCCCCCCC)CC(O)CCCCCCCCCC)CC(O)CCCCCCCCCC (some centres unmarked) [Compound 52] | 95 | – | – | 0.14 | 74 | – | 72.7 |
| CCCCCCCCCCCCCCC(O)CN(CCCC(=O)O[C@@H]1CO[C@H]2[C@@H]1OC[C@H]2OC(=O)CCCCN(CC(O)CCCCCCCCCC)CC(O)CCCCCCCCCC)CC(O)CCCCCCCCCCCCCC (some centres unmarked) [Compound 8] | 95 | 25.7 | – | 0.13 | 91 | – | – |
| CCCCCCCCCCC(O)CN(CCCOC(=O)O[C@@H]1CO[C@H]2[C@@H]1OC[C@H]2OC(=O)OCCCN(CC(O)CCCCCCCCCC)CC(O)CCCCCCCCCC)CC(O)CCCCCCCCCC (some centres unmarked) [Compound 36] | 88 | – | – | 0.2 | 94 | – | 31.7 |
| CCCCCCCCCCC(O)CN(CCCSC(=O)N[C@H]1CO[C@H]2[C@@H]1OC[C@@H]2NC(=O)SCCCN(CC(O)CCCCCCCCCC)CC(O)CCCCCCCCCC)CC(O)CCCCCCCCCC (some centres unmarked) [Compound 54] | 87 | – | – | 1.6 | 79 | – | 12.0 |
| CCCCCC/C=C\COC(=O)CCCCCC(O)CN(CCCC(=O)O[C@@H]1CO[C@H]2[C@@H]1OC[C@H]2OC(=O)CCCN(CC(O)CCCCCC(=O)OC/C=C\CCCCCC)CC(O)CCCCCC(=O)OC/C=C\CCCCCC)CC(O)CCCCCC(=O)OC/C=C\CCCCCC (some centres unmarked) [Compound 16] | 77 | 9.4 | – | 0.11 | 84 | – | – |
| CCCCCCCCCCCOC(=O)CCCCCN(CCCCCCCC(=O)OC(CCCCCCCC)CCCCCCCC)CCCCSC(=O)N[C@H]1CO[C@H]2[C@@H]1OC[C@@H]2NC(=O)SCCCCN(CCCCCCCC(=O)OC(CCCCCCCC)CCCCCCCC)CCCCCC(=O)OCCCCCCCCCCC (stereo in doubt) [Compound 84] | – | – | – | – | – | – | 22.1 |
